Measurements: PubChem BioAssay (NCI)
Values joined by “and” are separate entries in the source; they are usually repeats but may differ in a detail not shown here. Equal entries are not always repeated.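 Compound exposure: 48 hours, 5 concentrations, 96-well plates. TGI: concentration producing complete growth inhibition.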

What was measured:
Assay in all cases: NCI anticancer screen, dose series, 48 h
CCRF-CEM leukemia = system: CCRF-CEM leukemia
HCT-116 colon = system: HCT-116 colon
M14 melanoma = system: M14 melanoma
MCF7 breast = system: MCF7 breast
NCI-H23 lung = system: NCI-H23 lung
NCI-H522 lung = system: NCI-H522 lung
OVCAR-8 ovarian = system: OVCAR-8 ovarian
PC-3 prostate = system: PC-3 prostate
SF-539 CNS = system: SF-539 CNS
TK-10 renal = system: TK-10 renal
OVCAR-3 ovarian = system: OVCAR-3 ovarian

SMILES: O=Cc1ccc(-c2ccc(-c3ccc(CO)s3)o2)s1
- TGI (CCRF-CEM leukemia): > 23.7 µM
- TGI (HCT-116 colon): > 40.1 µM
- TGI (M14 melanoma): > 70.6 µM
- TGI (MCF7 breast): > 100 µM
- TGI (NCI-H23 lung): > 76.7 µM
- TGI (NCI-H522 lung): 47.7 µM
- TGI (OVCAR-8 ovarian): 49 µM
- TGI (PC-3 prostate): > 100 µM
- TGI (SF-539 CNS): > 81.6 µM
- TGI (TK-10 renal): 0.627 µM

SMILES: C=C1CC[C@H]2C(=O)OC(c3ccoc3)C[C@]2(C)C/C=C\C=C/1C(=O)OC (stereo partly drawn)
- TGI (HCT-116 colon): > 25 µM
- TGI (M14 melanoma): > 25 µM
- TGI (MCF7 breast): > 25 µM
- TGI (NCI-H23 lung): > 25 µM
- TGI (OVCAR-3 ovarian): > 25 µM
- TGI (OVCAR-8 ovarian): > 25 µM
- TGI (PC-3 prostate): > 25 µM
- TGI (SF-539 CNS): > 25 µM
- TGI (TK-10 renal): > 25 µM

SMILES: CCC1CC(O)c2c(O)c3c(c(O)c2C1O)C(=O)c1cccc(O)c1C3=O (stereo not drawn) (tested in a mixture with another compound)
- TGI (CCRF-CEM leukemia): 0.085 µM and 0.0441 µM
- TGI (HCT-116 colon): 0.741 µM
- TGI (M14 melanoma): 0.0434 µM and 0.0173 µM
- TGI (MCF7 breast): 6.04 µM
- TGI (NCI-H23 lung): 0.0795 µM and 0.186 µM
- TGI (NCI-H522 lung): 0.0658 µM
- TGI (OVCAR-3 ovarian): 0.0721 µM and 0.0312 µM
- TGI (OVCAR-8 ovarian): 0.181 µM and 1.19 µM
- TGI (PC-3 prostate): 0.0749 µM and 0.159 µM
- TGI (SF-539 CNS): 0.0957 µM and 0.0893 µM

SMILES: COc1ccc(C2(CC(C)C)CCN(S(=O)(=O)c3ccc(C)cc3)C2)cc1OC (stereo not drawn)
- TGI (CCRF-CEM leukemia): 64.3 µM
- TGI (HCT-116 colon): 92.6 µM
- TGI (M14 melanoma): > 100 µM
- TGI (MCF7 breast): > 100 µM
- TGI (NCI-H23 lung): > 100 µM
- TGI (NCI-H522 lung): > 100 µM
- TGI (OVCAR-3 ovarian): 55.8 µM
- TGI (PC-3 prostate): > 100 µM
- TGI (SF-539 CNS): > 100 µM
- TGI (TK-10 renal): > 100 µM

SMILES: COCCn1cnc2c(Cl)nc(Nc3ccccc3)nc21
- TGI (CCRF-CEM leukemia): 46.9 µM
- TGI (HCT-116 colon): > 100 µM
- TGI (M14 melanoma): 60.8 µM
- TGI (MCF7 breast): > 100 µM
- TGI (NCI-H23 lung): > 100 µM
- TGI (OVCAR-3 ovarian): 34.1 µM
- TGI (OVCAR-8 ovarian): 54.9 µM
- TGI (PC-3 prostate): 56.4 µM
- TGI (SF-539 CNS): > 100 µM
- TGI (TK-10 renal): > 100 µM

SMILES: C=C1CCCCCCCCC/C=C/1SCCCSC
- TGI (HCT-116 colon): > 100 µM
- TGI (M14 melanoma): > 100 µM
- TGI (MCF7 breast): > 100 µM
- TGI (NCI-H23 lung): > 100 µM
- TGI (NCI-H522 lung): > 100 µM
- TGI (OVCAR-3 ovarian): > 100 µM
- TGI (OVCAR-8 ovarian): > 100 µM
- TGI (PC-3 prostate): > 100 µM
- TGI (SF-539 CNS): > 100 µM
- TGI (TK-10 renal): > 100 µM

SMILES: Cc1[nH]n(-c2nc(O)c(-c3ccccc3)c(=O)[nH]2)c(=O)c1CCO
- TGI (CCRF-CEM leukemia): > 100 µM
- TGI (HCT-116 colon): > 100 µM
- TGI (M14 melanoma): > 100 µM
- TGI (MCF7 breast): > 100 µM
- TGI (NCI-H23 lung): > 100 µM
- TGI (NCI-H522 lung): > 100 µM
- TGI (OVCAR-8 ovarian): > 100 µM
- TGI (PC-3 prostate): > 100 µM
- TGI (SF-539 CNS): > 100 µM
- TGI (TK-10 renal): > 100 µM

SMILES: Cc1ccc(S(=O)(=O)C2=C(C(C)C)N=NC2(C)C)cc1
- TGI (HCT-116 colon): > 100 µM
- TGI (M14 melanoma): > 100 µM
- TGI (MCF7 breast): > 100 µM
- TGI (NCI-H23 lung): > 100 µM
- TGI (NCI-H522 lung): > 100 µM
- TGI (OVCAR-3 ovarian): > 100 µM
- TGI (OVCAR-8 ovarian): > 100 µM
- TGI (PC-3 prostate): > 100 µM
- TGI (SF-539 CNS): > 100 µM
- TGI (TK-10 renal): > 100 µM

SMILES: NC1(CCNC(=O)c2ccccc2)CCN(C(=O)c2ccccc2)CC1
- TGI (CCRF-CEM leukemia): > 100 µM
- TGI (HCT-116 colon): > 100 µM
- TGI (M14 melanoma): > 100 µM
- TGI (MCF7 breast): > 100 µM
- TGI (NCI-H23 lung): > 100 µM
- TGI (NCI-H522 lung): > 100 µM
- TGI (OVCAR-8 ovarian): > 100 µM
- TGI (PC-3 prostate): > 100 µM
- TGI (SF-539 CNS): > 100 µM
- TGI (TK-10 renal): > 100 µM

SMILES: CC(=O)OCC1OC(n2c(C)c(N=Nc3ccc(Cl)cc3)c(C)c(C#N)c2=S)C(OC(C)=O)C(OC(C)=O)C1OC(C)=O (stereo not drawn)
- TGI (CCRF-CEM leukemia): > 100 µM
- TGI (HCT-116 colon): > 100 µM
- TGI (M14 melanoma): > 100 µM
- TGI (MCF7 breast): > 100 µM
- TGI (NCI-H23 lung): > 100 µM
- TGI (OVCAR-3 ovarian): > 100 µM
- TGI (PC-3 prostate): > 100 µM
- TGI (SF-539 CNS): > 100 µM
- TGI (TK-10 renal): > 100 µM
